Data from the supplement of paper PMC10307832.

Tests used:
Test in all cases: relative viability (nuclei count vs DMSO), 5 days (fraction); higher = more cells survive
[1] = compound: C1=CC2=C(C=CC(=C2)C=C3C(=O)NC(=NCC4=CC=CS4)S3)N=C1 [RO-3306]
How it was run: (§1)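 Following overnight incubation at 37 °C, lung cancer cell lines in 1536-well plates were pinned with five library-drug doses (not always all listed) in √10 steps on vehicle-anchored plates. The cells then spent 5 days without medium change before a combined fix, permeabilisation and Hoechst stain, 4× imaging and MetaXpress nuclear counts. Viability is the treated-to-vehicle ratio of nuclei, taken as the median across plates. Only plates with control CV below 25% and at least one doubling passed.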

[2] = compound: COc1cc2c(Oc3ccc(NC(=O)C4(C(=O)Nc5ccc(F)cc5)CC4)cc3F)ccnc2cc1OCCCN1CCOCC1 [Foretinib] (anchor plate); conditions: 0.25 µM
How it was run: as §1

[3] = compound: O=S(=O)(c1ccccc1)N(CC(F)(F)F)c1ccc(C(O)(C(F)(F)F)C(F)(F)F)cc1
How it was run: as §1

[4] = compound: C1=CC2=C(C=CC(=C2)C=C3C(=O)NC(=NCC4=CC=CS4)S3)N=C1 [RO-3306] + C[C@]1(O)C[C@@H](c2nc(-c3ccc4ccc(-c5ccccc5)nc4c3)c3c(N)nccn32)C1 [Linsitinib] (partner 1 µM)
How it was run: (§2)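 Medians of duplicate plates are given as relative viability. That measure is the nuclei count in treated wells divided by the count in vehicle wells. Counts were taken on 4× images of lung cancer cell lines in 1536-well plates, 5 days after pin-tool dosing the day after seeding with one drug alone or a fixed anchor-drug dose plus five library-drug doses (not always all listed) in √10 steps.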

[5] = compound: O=S(=O)(c1ccccc1)N(CC(F)(F)F)c1ccc(C(O)(C(F)(F)F)C(F)(F)F)cc1 + Cc1cc(Nc2cc(N3CCN(C)CC3)nc(Sc3ccc(NC(=O)C4CC4)cc3)n2)n[nH]1 [Tozasertib] (partner 0.1 µM)
How it was run: as §2

[6] = compound: O=S(=O)(c1ccccc1)N(CC(F)(F)F)c1ccc(C(O)(C(F)(F)F)C(F)(F)F)cc1 + N=C(N)NC(=N)NCCc1ccccc1 [Phenformin] (partner 250 µM)
How it was run: as §2

Cell Line | relative viability ([1]; 0.01 µM) | relative viability ([1]; 0.03162 µM) | relative viability ([1]; 0.1 µM) | relative viability ([1]; 0.3162 µM) | relative viability ([1]; 1 µM) | relative viability [2] | relative viability ([3]; 0.8 µM) | relative viability ([3]; 2.53 µM) | relative viability ([3]; 8 µM) | relative viability ([4]; first compound 0.01 µM) | relative viability ([4]; first compound 0.03162 µM) | relative viability ([4]; first compound 0.1 µM) | relative viability ([4]; first compound 0.3162 µM) | relative viability ([4]; first compound 1 µM) | relative viability ([5]; first compound 0.8 µM) | relative viability ([5]; first compound 2.53 µM) | relative viability ([5]; first compound 8 µM) | relative viability ([6]; first compound 0.8 µM) | relative viability ([6]; first compound 2.53 µM) | relative viability ([6]; first compound 8 µM)
HCC-15 | 1.13 | 0.897 | 0.998 | 1.07 | 0.992 | 1.05 | 1.04 | 0.871 | 0.861 | 0.924 | 0.755 | 0.863 | 0.892 | 0.839 | 0.498 | 0.341 | 0.322 | 0.469 | 0.405 | 0.422
HCC-44 | 0.985 | 1 | 1.02 | 0.957 | 0.901 | – | 0.98 | 0.988 | 0.97 | 0.718 | 0.674 | 0.68 | 0.663 | 0.693 | – | 0.862 | 0.894 | 0.198 | 0.185 | 0.185
HCC-78 | 1.09 | 0.878 | 0.981 | 1.02 | 0.924 | 0.587 | 0.892 | 0.786 | 0.851 | 0.481 | 0.43 | 0.447 | 0.734 | 0.47 | 0.691 | 0.375 | 0.433 | 0.631 | 0.612 | 0.581
HCC-366 | 1.12 | 0.951 | 0.966 | 1.09 | 1.06 | 0.942 | 1.12 | 0.979 | 0.983 | 0.531 | 0.405 | 0.594 | 0.886 | 0.569 | 0.133 | 0.0684 | 0.0773 | 0.693 | 0.568 | 0.48
HCC-827 | 1.02 | 0.955 | 1.03 | 1.03 | 1.06 | 0.976 | 1.1 | 1.02 | 0.975 | 1.01 | 0.916 | 0.99 | 0.959 | 0.992 | 0.419 | 0.414 | 0.406 | 0.448 | 0.411 | 0.4
HOP-62 | 1.09 | 0.966 | 1.06 | 1.01 | 1.07 | 1.12 | 1.02 | 0.923 | 0.837 | 0.951 | 0.985 | 0.892 | 0.978 | 0.973 | 0.392 | 0.35 | 0.26 | 0.646 | 0.533 | 0.427
IA-LM | 1.05 | 0.683 | 0.89 | 1.05 | 0.869 | 1.13 | 0.924 | 0.829 | 0.756 | 0.559 | – | 0.56 | 0.571 | 0.809 | – | – | – | – | – | –
LC-2-ad | 0.955 | 0.85 | 0.929 | 1.02 | 0.95 | 0.973 | 0.992 | 0.936 | 0.892 | 0.902 | 0.757 | 0.813 | 0.833 | 0.817 | 0.496 | 0.492 | 0.474 | 0.626 | 0.584 | 0.633
NCI-H522 | 1.09 | 0.867 | 0.827 | 0.875 | 0.962 | – | 1.06 | 0.954 | 1.15 | – | – | – | – | – | 0.567 | 0.488 | 0.615 | 0.721 | 0.736 | 0.727
NCI-H1299 | 1.06 | 1 | 1.03 | 1.04 | 1.09 | 1.06 | 1.01 | 1.02 | 0.952 | 1.1 | 0.913 | 1.03 | 1.12 | 1.08 | – | – | – | – | – | –
NCI-H1563 | 0.966 | 0.887 | 0.936 | 0.993 | 0.953 | 0.93 | 0.95 | 1.02 | 0.947 | 1.08 | 1.14 | 1.3 | 1.18 | 1.16 | – | – | – | 0.676 | 0.637 | 0.675
NCI-H1623 | 0.99 | 0.909 | 0.958 | 1.08 | 0.844 | 0.899 | 0.928 | 0.836 | 0.856 | – | – | – | – | – | 0.399 | 0.396 | 0.366 | 0.6 | 0.559 | 0.57
NCI-H1648 | 0.863 | – | 0.877 | 0.858 | 1.01 | – | 0.793 | 0.58 | 0.518 | – | – | – | – | – | 0.408 | 0.293 | 0.339 | – | – | –
NCI-H1650 | 0.885 | 0.729 | 0.795 | 0.881 | 0.728 | 1.22 | 0.929 | 0.897 | 0.936 | – | – | – | – | – | 0.348 | 0.404 | 0.346 | 0.347 | 0.366 | 0.384
NCI-H1703 | 1.17 | 0.837 | 0.969 | 0.751 | 0.906 | 0.347 | 0.846 | 0.776 | 0.696 | 1.04 | 0.409 | 0.598 | 0.22 | 0.681 | – | – | – | – | – | –
NCI-H1792 | 0.813 | – | 0.824 | 0.908 | 0.782 | – | 0.79 | 0.724 | 0.858 | 0.728 | – | 0.569 | 0.604 | 0.31 | – | – | – | 0.305 | 0.267 | 0.204
NCI-H2170 | 1.06 | 0.946 | 0.952 | 1.01 | 0.991 | 1.01 | 1.08 | 0.964 | 0.913 | – | – | – | – | – | 0.784 | 0.616 | 0.629 | 0.379 | 0.348 | 0.344
NCI-H2342 | 1.02 | 0.865 | 0.941 | 0.914 | 0.932 | 1.05 | 1.36 | 0.968 | 0.938 | – | – | – | – | – | 0.483 | 0.609 | 0.493 | 0.606 | 0.599 | 0.48
SW 900 | 0.917 | 0.697 | 0.705 | 0.943 | 0.785 | 0.974 | 0.934 | 0.729 | 0.994 | – | – | – | – | – | 0.528 | 0.426 | 0.404 | 0.649 | 0.34 | 0.437
